From patent US8461305B2, “L-fucose α1→6 specific lectin” (J-Oil Mills, Inc., priority 2008, dated 2013)

B1: Aleuria aurantia lectin (protein)
chain: PTEFLYTSKIAAISWAATGGRQQRVYFQDLNGKIREAQRGGDNPWTGGSSQNVIGEAKLFSPLAAVTWKSAQGIQIRVYCVNKDNILSEFVYDGSKWITGQLGSVGVKVGSNSKLAALQWGGSESAPPNIRVYYQKSNGSGSSIHEYVWSGKWTAGASFGSTVPGTGIGATAIGPGRLRIYYQATDNKIREHCWDSNSWYVGGFSASASAGVSIAAISWGSTPNIRVYWQKGREELYEAAYGGSWNTPGQIKDASRPTPSLPDTFIAANSSGNIDISVFFQASGVSLQQWQWISGKGWSIGAVVPTGTPAGW
B2: Lens culinaris agglutinin (protein)
chain 1: TETTSFSITKFSPDQKNLIFQGDGYTTKGKLTLTKAVKSTVGRALYSTPIHIWDRDTGNVANFVTSFTFVIDAPSSYNVADEFTFFIAPVDTKPQTGGGYLGVFNSKEYDKTSQTVAVEFDTFYNAAWDPSNKERHIGIDVNSIKSVNTKSWNLQNGERANVVIAFNAATNVLTVTLTYP
chain 2: VTSYTLNEVVPLKDVVPEWVRIGFSATTGAEFAAHEVHSWSFHSELGGTSSS
B3: Pisum sativum agglutinin (protein)
chain: TETTSFLITKFSPDQQNLIFQGDGYTTKEKLTLTKAVKNTVGRALYSSPIHIWDRETGNVANFVTSFTFVINAPNSYNVADGFTFFIAPVDTKPQTGGGYLGVFNSAEYDKTTQTVAVEFDTFYNAAWDPSNRDRHIGIDVNSIKSVNTKSWKLQNGEEANVVIAFNAATNVLTVSLTYPNSLEEENVTSYTLSDVVSLKDVVPEWVRIGFSATTGAEYAAHEVLSWSFHSELSGTSSSKQAADA

Test: hemagglutinating inhibition test with sugars (sugar binding specificity)
Assay type: cell-based
Excerpt: The sugar binding specificity of lectin also can be confirmed by using erythrocytes that can be specifically agglutinated by the lectin to investigate the sugar type that may inhibit the agglutination of the erythrocytes and the concentration thereof.
Various monosaccharides, oligosaccharides, and polysaccharides shown in Table 2 and glycoproteins shown in Table 3 were subjected to hemagglutinating inhibition test to evaluate PTL of Example 1 and the SRL of Example 2 with regard to the sugar binding specificity.
On a 96 well U-bottom microtiter plate, double dilution series of 10 μl of monosaccharide, oligosaccharide, polysaccharide, and glycoprotein solutions were prepared. Then, lectin solution adjusted in advance to have titer 4 was added in an amount of 10 μl to the respective wells. Then, the plate was subjected to a still-standing at a room temperature for one hour for sensitization. Then, 10 μl of 4%-red blood cell suspension was added to the respective wells and the plate was further subjected to a still-standing at a room temperature for one hour. […] The lowest concentration showing the inhibition was assumed as the minimum inhibition concentration. The lower the minimum inhibition concentration is, the higher the specificity to lectin is.
For comparison, the sugar binding specificity was evaluated using the following commercially-available lectins: Comparison Example 1: AAL (SEIKAGAKU BIOBUSINESS CORPORATION—J-OIL MILLS, Inc.), Comparison Example 2: AOL (TOKYO CHEMICAL INDUSTRY CO., LTD.—Gekkeikan Sake Company, Ltd.), Comparison Example 3: LCA (SEIKAGAKU BIOBUSINESS CORPORATION—J-OIL MILLS, Inc.), and Comparison Example 4: PSA (SEIKAGAKU BIOBUSINESS CORPORATION—J-OIL MILLS, Inc.).

[1] = inhibitor: N-Acetylneuraminic acid
[2] = inhibitor: N-acetylgalactosamine
[3] = inhibitor: N-glycolylneuraminic acid

Row | Molecule | minimum inhibition concentration of hemagglutination (inhibitor: Fructose) | minimum inhibition concentration of hemagglutination (inhibitor: Galactose) | minimum inhibition concentration of hemagglutination (inhibitor: Glucose) | minimum inhibition concentration of hemagglutination (inhibitor: L-fucose) | minimum inhibition concentration of hemagglutination (inhibitor: Lactose) | minimum inhibition concentration of hemagglutination (inhibitor: Maltose) | minimum inhibition concentration of hemagglutination (inhibitor: Mannose) | minimum inhibition concentration of hemagglutination (inhibitor: Melibiose) | minimum inhibition concentration of hemagglutination (inhibitor: Metyl α-mannoside) | minimum inhibition concentration of hemagglutination [1] | minimum inhibition concentration of hemagglutination [2] | minimum inhibition concentration of hemagglutination (inhibitor: N-acetylglucosamine) | minimum inhibition concentration of hemagglutination [3] | minimum inhibition concentration of hemagglutination (inhibitor: Raffinose) | minimum inhibition concentration of hemagglutination (inhibitor: Rhamnose) | minimum inhibition concentration of hemagglutination (inhibitor: Serial lactose) | minimum inhibition concentration of hemagglutination (inhibitor: Sucrose) | minimum inhibition concentration of hemagglutination (inhibitor: Xylose)
1 | Aspergillus oryzae lectin [AOL, reference compound] | 25 mM | >100 mM | >100 mM | 0.391 mM | >6 mM | >100 mM | 100 mM | >100 mM | >100 mM | >100 mM | >100 mM | >100 mM | >100 mM | >100 mM | 100 mM | >6 mM | >100 mM | >100 mM
2 | Pholiota terrestris lectin [PTL, novel L-fucose α1→6 specific lectin purified from the mushroom Pholiota terrestris] | >100 mM | >100 mM | >100 mM | >100 mM | >6 mM | >100 mM | >100 mM | >100 mM | >100 mM | >100 mM | >100 mM | >100 mM | >100 mM | >100 mM | >100 mM | >6 mM | >100 mM | >100 mM
3 | Stropharia rugosoannulata lectin [SRL, novel L-fucose α1→6 specific lectin purified from the mushroom Stropharia rugosoannulata] | >100 mM | >100 mM | >100 mM | >100 mM | >6 mM | >100 mM | >100 mM | >100 mM | >100 mM | >100 mM | >100 mM | >100 mM | >100 mM | >100 mM | >100 mM | >6 mM | >100 mM | >100 mM
4 | B1 | 25 mM | >100 mM | >100 mM | 0.391 mM | >6 mM | >100 mM | 50 mM | >100 mM | >100 mM | >100 mM | >100 mM | >100 mM | >100 mM | >100 mM | >100 mM | >6 mM | >100 mM | >100 mM
5 | B2 | >100 mM | >100 mM | >100 mM | >100 mM | >6 mM | 100 mM | 50 mM | >100 mM | 50 mM | >100 mM | >100 mM | >100 mM | >100 mM | >100 mM | >100 mM | >6 mM | >100 mM | >100 mM
6 | B3 | >100 mM | >100 mM | >100 mM | >100 mM | >6 mM | >100 mM | 50 mM | >100 mM | 50 mM | >100 mM | >100 mM | >100 mM | >100 mM | >100 mM | >100 mM | >6 mM | >100 mM | >100 mM
